The text below walks through data of paper PMC5513091, “A novel Alzheimer’s disease drug candidate targeting inflammation and fatty acid metabolism” (Alzheimer's Research & Therapy, 2017).

Experiment [1] concerns APPswe/PS1∆E9-transgenic mice. Also noted: method as in PMID 23785163. The note with it: fed to APPswe/PS1∆E9-transgenic mice, preventive paradigm; cited from earlier work.
Experiment [2] deals with Primary embryonic day 18 cortical cells. Briefly: Trophic factor withdrawal assay. The experiment is classed as cell-based. The note with it: Cortical neurone; Cortical neuron; cell viability; read-out: Half-maximal effective concentration, Trophic factor withdrawal. How it is done: (§1) The various phenotypic screening assays were conducted as previously described. Briefly, HT-22, primary cortical neurons, or MC65 was plated and exposed to the different environmental stresses. Cells were treated with varying concentrations of CAD-31, and half-maximal effective concentration (EC50) was determined on the basis of cell viability.
(§2) • An assay that mimics the dramatic loss of neurotrophic support in the old brain is the trophic factor withdrawal assay. Primary embryonic day 18 cortical cells are plated at low density in serum-free medium. At low density, the cells die within 2 days; they can be rescued by combinations of neurotrophic growth factors, but not by one alone ([19] and unpublished data). […] BDNF is a molecule that is also involved in promoting memory and neurogenesis and is reduced in the brain with age and in AD, as well as in other neurological disorders. BDNF has long been considered a drug target for AD [23]. […] A reduction in GSH is a common denominator of old age and essentially all chronic central nervous system (CNS) diseases. J147 and CAD-31 both effectively reduce oxidative stress, with EC50 of 6 nM and 20 nM, respectively. • CAD-31 also prevents loss of energy metabolism that leads to neuron cell death in an in vitro ischemia model. […]

The test system of experiment [3] is senescence-accelerated mouse-prone 8 (SAMP8) mice. Also noted: method as in PMID 26564964. Particulars: model of sporadic AD; cited from earlier work.
In experiment [4] the test system is MC65. Kind of experiment: Aβ toxicity (intracellular). The experiment is classed as cell-based, human. The note with it: Homo sapiens, MC65, MC65; read-out: Half-maximal effective concentration, Aβ toxicity (intracellular). How it is done: as §1
• An assay that mimics the dramatic loss of neurotrophic support in the old brain is the trophic factor withdrawal assay. Primary embryonic day 18 cortical cells are plated at low density in serum-free medium. At low density, the cells die within 2 days; they can be rescued by combinations of neurotrophic growth factors, but not by one alone ([19] and unpublished data). […] BDNF is a molecule that is also involved in promoting memory and neurogenesis and is reduced in the brain with age and in AD, as well as in other neurological disorders. BDNF has long been considered a drug target for AD [23]. […] A reduction in GSH is a common denominator of old age and essentially all chronic central nervous system (CNS) diseases. J147 and CAD-31 both effectively reduce oxidative stress, with EC50 of 6 nM and 20 nM, respectively. • CAD-31 also prevents loss of energy metabolism that leads to neuron cell death in an in vitro ischemia model. […] Intracellular Aβ toxicity was assayed in the human neuron cell line MC65 that conditionally expresses the C99 fragment of the amyloid precursor protein. When the cells are induced to make Aβ, the cells die within 4 days. Both J147 and CAD-31 block this toxicity at around 10 nM. Therefore, CAD-31 has a repertoire of neuroprotective activities similar but not identical to that of its parent compound, J147.

In experiment [5] the test system is APPswe/PS1∆E9 mice. Further details: method as in PMID 22194796, PMID 23673233, PMID 27149904. The note with it: administered to 3-month-old APPswe/PS1∆E9 mice for 7 months; cited from earlier work.
Experiment [6] relates to normal rodents. Also noted: method as in PMID 22194796, PMID 23673233, PMID 27149904. Particulars: cited from earlier work.
The subject of experiment [7] is very old transgenic AD mice. Also noted: method as in PMID 23673233. Particulars: fed to very old transgenic AD mice; cited from earlier work.
The subject of experiment [8] is HT22. Kind of experiment: In vitro ischemia. The experiment is classed as cell-based. The note with it: Mus musculus, HT-22, read-out: Half-maximal effective concentration, In vitro ischemia. As for the experimental part: as §1, §2
Experiment [9] concerns HT22 cells expressing the brain-derived neurotrophic factor (BDNF) receptor transmembrane receptor kinase B. Kind of experiment: BDNF-like activity (rescue from serum starvation). Particulars: Mus musculus, HT-22, read-out: Half-maximal effective concentration, BDNF-like activity. The experiment is classed as cell-based. As for the experimental part:
as §1, §2

The test system of experiment [10] is primary cortical neurons. Kind of experiment: Oxytosis. The note with it: Primary cortical neuron; read-out: Half-maximal effective concentration, Oxytosis. The experiment is classed as cell-based. How it is done:
as §1, §2

For experiment [11], the system named is rat hippocampal neurons. Kind of experiment: Aβ toxicity (extracellular). The experiment is classed as cell-based. The note with it: Hippocampal neuron, read-out: Half-maximal effective concentration, Aβ toxicity (extracellular).
In experiment [12] the target is Aβ1–42 (Homo sapiens, UniProt P05067). Briefly: Thioflavin S Aβ1–42 aggregation assay. The experiment is classed as biochemical. The note with it: data not shown.
Sequence of Aβ1–42 (P05067 672-713 limits assumed): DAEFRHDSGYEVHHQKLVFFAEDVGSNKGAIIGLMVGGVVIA

For `COc1cc(/C=C/c2cc(/C=C/c3ccc(O)c(OC)c3)n(-c3ccccc3)n2)ccc1O` [CNB-001], the “accumulation of ubiquitinated, aggregated proteins in the brain” value in experiment [1] is reported as “reduces the accumulation of ubiquitinated, aggregated proteins in the brain”.
`COc1cccc(/C=N/N(C(=O)C(F)(F)F)c2ccc(C)cc2C)c1` [J147, reference compound]: the EC50 is 0.035 µM in [2]; approximately 0.01 µM in [4]; 0.014 µM in experiment [8]; 0.074 µM in experiment [9]; 0.006 µM in experiment [10]; 0.015 µM in experiment [11]. Besides, the “loss of synaptic proteins and cognitive decline” value in [3] was “prevents the loss of synaptic proteins and cognitive decline”; in [5], “prevents the loss of synaptic proteins and cognitive decline”. The memory result in experiment [6] is listed as “facilitates memory in normal rodents”. For the same molecule, the “memory deficits and AD pathology” value in [7] was “reverses memory deficits and some AD pathology”. Further, the “binding to and direct inhibition of Aβ1–42 aggregation” value in experiment [12] was “Neither J147 nor CAD-31 binds to and directly inhibits Aβ1–42 aggregation”.
